Columns and labels:
[1] = tested on: CD147 (extracellular matrix metalloproteinase inducer, EMMPRIN) mRNA expression; assay: q-PCR, mRNA expression of CD147 in PMA-induced THP-1 cells; format: cell-based, Human; settings: 24 h; for CD147 mRNA inhibitory effect compared with YG (positive control) / suppression of the mRNA expression of CD147 (in words): 10 μM; for IC50: Homo sapiens, q-PCR 2^-ΔΔCt, 1-50 μM, read-out: IC50, suppression of mRNA expression of CD147
Procedure: (§1) Human monocytic THP-1 cells were cultured at 37 °C by DMEM/F12 medium supplemented with 10% fetal bovine serum and 1% penicillin/streptomycin in a humidified atmosphere of 5% CO2. Cells (5 × 10^5 to 10^6 per mL) were subjected to differentiation by 100 nM PMA for 24 h with DMEM/F12 serum medium. After incubation, the adherent cells were washed with DMEM/F12. Nonattached cells were removed by aspiration.
RevertAid™ First Strand cDNA Synthesis Kit was applied to extract total RNA of differentiated THP-1 cells treated with compounds 3–5, 9 and 11 (10 μM), along with 7 and 8 (1, 3, 10, 25, and 50 μM) for 24 h (5 × 10^5 cells per mL) following the manufacturer's instructions. cDNA was synthesized from the isolated total RNA based on the instruction of the PrimeScript RT reagent Kit. Briefly, PrimeScript RT Enzyme Mix 1 (0.5 μL), 5 × PrimeScriptTM Buffer (2 μL), oligo dt Primer (0.5 μL) and Random 6 mers (0.5 μL) were gently mixed with 1 μg RNA from each sample to a reaction volume of 10 μL with RNase free water, then incubated for 15 minutes at 37 °C to activate the reverse transcriptase enzyme. Finally, the reaction was stopped by 85 °C for 5 seconds.
After reverse transcription, cDNA was used to carry out real-time quantitative RT-PCR on ProFlex™ PCR system by SYBR Premix Ex Taq (Takara). The final volume of TR-PCR reaction is 25 μL, containing 12.5 μL SYBR green master mix, 1 μL cDNA, 0.5 μL each forward and reverse primer, and 10.5 μL nuclease-free water. For information of primers see Table S1. ^† Thermal cycling conditions for all genes were as follows: template pre-denaturation (10 min at 95 °C), denaturation (15 seconds at 95 °C), annealing and extension (30 seconds at 60 °C) for 40 cycles. Internal reference is GAPDH mRNA, and fold changes of mRNA expression for each target relative to GAPDH were calculated by the 2^−ΔΔCt method. Expression of mRNA is determined as the change in mRNA copy numbers relative to negative control cells (undifferentiated THP-1 cells). All the experiments were carried out in triplicate.

[2] = tested on: MMP-2 mRNA expression; assay: q-PCR, mRNA expression of MMP-2 in PMA-induced THP-1 cells; format: cell-based, Human; settings: 24 h
Procedure: as §1
(§2) RevertAid™ First Strand cDNA Synthesis Kit was applied to extract total RNA of differentiated THP-1 cells treated with compounds 3–5, 9 and 11 (10 μM), along with 7 and 8 (1, 3, 10, 25, and 50 μM) for 24 h (5 × 10^5 cells per mL) following the manufacturer's instructions. cDNA was synthesized from the isolated total RNA based on the instruction of the PrimeScript RT reagent Kit. […]
(§3) After reverse transcription, cDNA was used to carry out real-time quantitative RT-PCR on ProFlex™ PCR system by SYBR Premix Ex Taq (Takara). […] Internal reference is GAPDH mRNA, and fold changes of mRNA expression for each target relative to GAPDH were calculated by the 2^−ΔΔCt method. Expression of mRNA is determined as the change in mRNA copy numbers relative to negative control cells (undifferentiated THP-1 cells). […]

[3] = tested on: MMP-9 mRNA expression; assay: q-PCR, mRNA expression of MMP-9 in PMA-induced THP-1 cells; format: cell-based, Human; settings: 24 h
Procedure: as §1, §2, §3

[4] = tested on: migration of PMA-induced THP-1 cells; assay: Wound-healing (scratch wound) migration assay; format: cell-based; settings: Homo sapiens, 24 h incubation, read-out: IC50, decrease of number of migrated cells
Procedure: as §1
The differentiated THP-1 cells were seeded and grown into full confluence in 6 well plates. 2% FBS DMEM/F12 media was used to inactivated cell proliferation for 12 h, then wounded with pipette tips. Fresh DMEM/F12 medium with or without 1, 3, 10, 25, and 50 μM of 7 was added to the scratched monolayers. Images were took after 24 hours using a Nickon inverted microscope (magnification, 10×). The migration cell number of PMA-induced THP-1 cell group was defined as control. All the experiments were performed in triplicate.

[5] = tested on: CD147 and MMPs mRNA expression; design: method as in PMID 35541353, doi:10.1016/j.phytol.2021.01.009; settings: previously identified CTs from C. foetida; cited from earlier work

Compound	CD147 mRNA inhibitory effect compared with YG (positive control) [1]	suppression of the mRNA expression of CD147 (in words) [1]	IC50 [1]	IC50 ([2]; Homo sapiens, q-PCR, 1-50 μM, read-out: IC50, down-regulation of mRNA expression of MMP-2)	IC50 ([3]; Homo sapiens, q-PCR, 1-50 μM, read-out: IC50, down-regulation of mRNA expression of MMP-9)	IC50 [4]	decrease of MMP-2 mRNA expression ([2]; 10 μM, P < 0.01)	decrease of MMP-9 mRNA expression ([3]; 10 μM, P < 0.01)	inhibitions on CD147 and MMPs mRNA expression (in words) [5]
CC1CC(C(O)C(C)(C)O)OC2(O)C(=O)C3(C)C4=CCC5C(C)(C)C(=O)CCC56CC46CC(O)C3(C)C12 [Compound 7, (23R,24S)-12β-Hydroxy-7(8)-en-3,15-dione-hydroxyshengmanol]	more potent than YG	noticeably suppressed	3.38 ± 0.27 µM	6.32 ± 0.31 µM	11.6 ± 0.23 µM	5.87 ± 0.27 µM	–	–	–
CC1C(O)C2(OC3CC4(C)C5CCC6C(C)(C)C(O)CCC67CC57CCC4(C)C31)OC2C(C)(C)O (stereo not shown) [Compound 8, Actaeaepol]	same level of activity as YG	noticeably suppressed	8.25 ± 0.33 µM	–	–	–	35%	25%	–
12β-hydroxycimiacerol [HC]	–	–	–	–	–	–	–	–	notable inhibitions
yunnanterpene G [YG]	–	–	–	–	–	–	–	–	notable inhibitions
